Read-outs that look alike come from different tables or passages of the source.
Key:
[1] = system: multiple myeloma residual disease (diseased cells mobilized into blood)
Protocol: Patients may be matched across experimental groups by age, sex, and other clinical factors, such as multiple myeloma burden or genetic profile of the multiple myeloma in the patient. When in complete remission using conventional techniques after appropriate therapy, patients in the control group undergo a blood as well as bone marrow examination each of which is subjected to MRD detection/assay using the ClonoSEQ® technique (Adaptive Biotechnologies). […] About 12 hours after plerixafor administration, patients in the LBYE group undergo a blood draw. The blood samples are subjected to MRD assay using the ClonoSEQ® technique. […] In another variation of the experiment, where myeloma patients serve as their own controls, patients undergo bone marrow examination after attaining complete remission. The marrow is subjected to MRD assay by ClonoSEQ®. After the marrow exam is done, each patient receives 20 mg plerixafor and the blood is sampled 12 hours later. Blood samples are subjected to MRD assay by ClonoSEQ®.

[2] = system: solid tumor mutations and genetic variations; settings: single dose of 20 mg, blood 12 hours later, vs control group solid tumor examination
Protocol: Human patients who are diagnosed with one or more solid tumors are split into two experimental groups, an “LBYE” group and a “control group.” Patients may be matched across experimental groups by age, sex, and other clinical factors, such as solid tumor burden or genetic profile of the solid tumor in the patient.
Patients in the “LBYE” experimental group are administered a single dose of 20 mg plerixafor and undergo blood sampling 12 hours later. This sample is analyzed for the presence of various mutations and genetic variations known to influence prognosis in myeloma. […] In a variation on the above experiment, the LBYE group patients undergo a solid tumor examination which is subjected to appropriate testing.
In another variation on the experiment, the LBYE group's tumor and blood samples are pooled and analyzed in a single assay to make the test more cost-effective. […] The mononuclear cell fraction is analyzed for the presence of solid tumor CTCs by multiparametric flow cytometry according to methods described herein. Solid tumor CTCs are genetically profiled, e.g., by sequencing to determine the mutational profile of the CTCs. Mutational profile of the CTC sample is, in some cases, compared to mutational profile of solid tumor cells obtained from solid tumor sample from the same patient.

cfDNA / ctDNA = settings: plasma
Protocol: Cell-free DNA (cfDNA) is isolated from patient plasma samples according to known methods. The concentration of the isolated cfDNA from LBYE and control patients are determined.

[3] = system: multiple myeloma mutations and genetic variations; settings: single dose of 20 mg, blood 12 hours later, vs control group bone marrow
Excerpt: Patients may be matched across experimental groups by age, sex, and other clinical factors, such as multiple myeloma burden or genetic profile of the multiple myeloma in the patient.

HSC = settings: in vivo; cited from earlier work
[4] = system: lymphoma mutations and genetic variations; settings: single dose of 20 mg, blood 12 hours later, vs control group bone marrow
Protocol: Human patients who are diagnosed with lymphoma are split into two experimental groups, an “LBYE” group and a “control group.” Patients may be matched across experimental groups by age, sex, and other clinical factors, such as lymphoma burden or genetic profile of the lymphoma in the patient.
Patients in the “LBYE” experimental group are administered a single dose of 20 mg plerixafor and undergo blood sampling 12 hours later. This sample is analyzed for the presence of various mutations and genetic variations known to influence prognosis in myeloma. […] In a variation on the above experiment, the LBYE group patients undergo a bone marrow examination which is subjected to appropriate testing.
In another variation on the experiment, the LBYE group's marrow and blood sample are pooled and analyzed in a single assay to make the test more cost-effective. […] The mononuclear cell fraction is analyzed for the presence of lymphoma CTCs by multiparametric flow cytometry according to methods described herein. Lymphoma CTCs are genetically profiled, e.g., by sequencing to determine the mutational profile of the CTCs. Mutational profile of the CTC sample is, in some cases, compared to mutational profile of lymphoma cells obtained from bone marrow sample from the same patient.

[5] = system: lymphoma residual disease (diseased cells mobilized into blood)
Protocol: About 12 hours after plerixafor administration, patients in the LBYE group undergo a blood draw. The blood samples are subjected to MRD assay. […] In another variation of the experiment, where lymphoma patients serve as their own controls, patients undergo blood sampling after attaining complete remission. The blood is subjected to MRD assay. After the blood test is done, each patient receives 20 mg plerixafor and the blood is sampled 12 hours later. These blood samples are subjected to MRD assay by the same technique.

[6] = system: solid tumor residual disease (diseased cells mobilized into blood)
Protocol: When in complete remission using conventional techniques after appropriate therapy, patients in the control group undergo a blood examination each of which is subjected to MRD detection/assay using an appropriate assay (e.g. The Guardant 360 liquid biopsy or the Tempus XF liquid biopsy). […] About 12 hours after plerixafor administration, patients in the LBYE group undergo a blood draw. The blood samples are subjected to the same MRD assay.
In another variation of the experiment, where cancer patients serve as their own controls, patients undergo blood examination after attaining complete remission. Afterwards, each patient receives 20 mg plerixafor and the blood is sampled 12 hours later. Both samples are subjected to MRD assay.

[7] = complete remission, single 20 mg dose, blood about 12 hours after, vs control group blood and bone marrow
[8] = patients as own controls, 20 mg, blood 12 hours later

For `c1cc(CN2CCCNCCNCCCNCC2)ccc1CN1CCCNCCNCCCNCC1` [plerixafor, 1-{[4-(1,4,8,11-tetrazacyclotetradec-1-ylmethyl)phenyl]methyl}-1,4,8,11-tetrazacyclotetradecane], the “Number of patients with residual disease detected (MRD assay, ClonoSEQ)” value [1, 7] was “Residual disease is detected in a greater number of patients in the LBYE group than in the control group”, the “Proportion of patients positive for MRD, blood after LBYE vs bone marrow” value ([1]; patients as own controls, 20 mg, blood 12 hours later, ClonoSEQ) was “A greater proportion of patients is found to be positive for MRD from the blood after the LBYE technique than the bone marrow” and the “Frequency and breadth of abnormalities (mutations and genetic variations)” value (shortened to “Frequency and breadth of abnormalities”) [2] was “greater frequency and breadth of abnormalities than those in the control group”. The “cfDNA concentration/amount after LBYE” value (cfDNA / ctDNA; lymphoma, patients as own controls, amongst patients positive for MRD) was “the concentration/amount of cfDNA is higher after LBYE”, the “cfDNA concentration, LBYE group vs control group” value (cfDNA / ctDNA; multiple myeloma) was “higher cfDNA concentrations than patients in the control group” and the “cfDNA concentration, LBYE group vs control group” value (cfDNA / ctDNA; solid tumor) was “higher cfDNA concentrations than patients in the control group”. The “Frequency and breadth of abnormalities” value [3] was “greater frequency and breadth of abnormalities than those in the control group”, the “Mobilization of HSC” value (HSC) was “rapidly mobilize HSC within hours” and the “Frequency and breadth of abnormalities” value [4] was “greater frequency and breadth of abnormalities than those in the control group”. The “Number of patients with residual disease detected (MRD assay)” value [5, 7] was “Residual disease is detected in a greater number of patients in the LBYE group than in the control group”, the “Proportion of patients positive for MRD, blood after LBYE vs non-LBYE blood sample” value [5, 8] was “A greater proportion of patients is found to be positive for MRD from the blood after the LBYE technique than the non-LBYE blood sample” and the “Number of patients with residual disease detected (MRD assay)” value ([6]; complete remission, single 20 mg dose, blood about 12 hours after, vs control group blood) was “Residual disease is detected in a greater number of patients in the LBYE group than in the control group”. The “Proportion of patients positive for MRD, post- vs pre-plerixafor blood sample” value [6, 8] was “A greater proportion of patients is found to be positive for MRD from the blood sample obtained after plerixafor administration, as compared to the pre-plerixafor blood sample”.

Source: patent publication US11933783B2, “Liquid biopsy yield enhancement” (priority 2020, dated 2024)
